{"source": "paper PMC12156367", "about": "“Synthesis and Biological Evaluation of Seco-Coumarin/Furoxan Hybrids as Potent Anti-Tumor Agents to Overcome Multidrug Resistance via Multiple Mechanisms” (Molecules, 2025)", "key": {"[1]": {"system": "MCF-7/ADR (doxorubicin-resistant human breast cancer cell line)", "test": "In vitro antiproliferative assay (MTT, 48 h), MCF-7/ADR", "assay_type": "cell-based", "text": "(§1) The MDA-MB-468 cell line was procured from the Cell Bank of the Chinese Academy of Sciences. The MCF-7, MCF-7/ADR, MCF-10A, and MDA-MB-231 cell lines were kindly provided by Professor Xianyi Sha (Fudan University, Shanghai, China). The HUVEC cells were kindly provided by Associate Professor Hulie Zeng (Fudan University, Shanghai, China). The MDA-MB-468, MDA-MB-231, MCF-7, MCF-10A, and HUVEC cells were cultivated in DMEM (Service Biotechnology, China) supplemented with 10% FBS (Capricorn Scientific, Germany) and 1% penicillin-streptomycin (Meilunbio, Dalian, China). For the MCF-7/ADR cells, they were cultured in RPMI-1640 (Service Biotechnology, Wuhan, China), containing 10% FBS and 1% penicillin-streptomycin. Additionally, 500 ng/mL of doxorubicin (Sigma-Aldrich, Saint Louis, MO, USA) was incorporated into the RPMI-1640 culture medium to keep drug resistance. All cell lines were cultured in a humidified incubator at 37 °C with a 5% CO2 atmosphere.\nFollowing harvest during logarithmic growth, cells were plated in 96-well culture plates at an initial density of 5000 cells per well. Incubate the plate overnight at 37 °C to allow the cells to adhere. Following the overnight incubation, introduce the compound at the predetermined concentration into each well, and then return the plate to the incubator for an additional 48 h culture period. After the 48 h treatment, carefully aspirate the drug-containing medium from each well. Subsequently, add 150 μL of 0.5 mg/mL MTT (Beyotime, China) solution to each well. Protect the plate from light and incubate it at 37 °C for 4 h to allow the formation of formazan crystals. Finally, add 150 μL of DMSO (Sinopharm, China) to each well and gently mix to ensure complete dissolution of the formazan crystals. The OD value at 570nm was measured using a microplate reader (Thermo Fisher, Waltham, MA, USA). Cell proliferation inhibition was determined using the following formula:Inhibition (%) = [(ODDMSO − ODcompd.)/(ODDMSO − ODblank)] × 100\nGraphPad Prism software 9 was used to calculate the IC50 values. The specific calculation process is as follows: Firstly, we input the experimental data into Prism. The data include the concentrations of the experimental compounds and the corresponding biological response values. For instance, in the cell experiment, we recorded the cell viability values at different drug concentrations. Subsequently, we select the option of “Dose–Response–Nonlinear Regression” in the “Analyze” menu for curve fitting. Generally speaking, we use the model of “[Inhibitor] vs. normalized response—Variable slope”. The Prism software fits the data through the nonlinear least squares method and finds the parameter values that can minimize the difference between the model’s predicted values and the actual data. After completing the curve fitting, the software will directly provide the estimated values and confidence intervals of the IC50 value and other relevant parameters. Meanwhile, it will also offer goodness-of-fit indices, such as the correlation coefficient, to evaluate the quality of the fitting. Through the above method, we can accurately calculate the IC50 value, thereby assessing the intensity of the inhibitory or activating effect of the compound on the biological system."}, "[2]": {"system": "human normal mammary epithelial cell lines MCF-10A", "test": "Cytotoxicity in normal mammary epithelial cells (MTT)", "assay_type": "cell-based", "conditions": "normal mammary epithelial cell line", "text": "as §1, with “Additionally, 500 ng/mL of doxorubicin (Sigma-Aldrich, Saint Louis, MO, USA) was incorporated into the RPMI-1640 culture medium to keep drug resistance. All cell lines were cultured in a humidified incubator at 37 °C with a 5% CO2 atmosphere.” left out\n(§2) Following harvest during logarithmic growth, cells were plated in 96-well culture plates at an initial density of 5000 cells per well. […] The OD value at 570nm was measured using a microplate reader (Thermo Fisher, Waltham, MA, USA). Cell proliferation inhibition was determined using the following formula:Inhibition (%) = [(ODDMSO − ODcompd.)/(ODDMSO − ODblank)] × 100\nGraphPad Prism software 9 was used to calculate the IC50 values. […] For instance, in the cell experiment, we recorded the cell viability values at different drug concentrations. […]"}, "[3]": {"system": "HUVEC (human umbilical vein endothelial cell lines)", "test": "Cytotoxicity screen in HUVEC", "assay_type": "cell-based", "conditions": "500 nM concentration", "text": "as §1\nas §2, with “well. Incubate the plate overnight at 37 °C to allow the cells to adhere.” for “well.”, “100 […]” for “100”"}, "MCF-7/ADR": {"system": "MCF-7/ADR", "test": "Cell apoptosis analysis (Annexin V-FITC/PI flow cytometry)", "assay_type": "cell-based, human", "conditions": "9e 10 nM, control 5.53%", "protocol": "MCF-7/ADR (2 × 10^5 cells/well) were plated in 6-well plates and cultured overnight. Following 24 h treatment with specified concentrations of 9e, cells were harvested and analyzed by Annexin V-FITC apoptosis detection kit (Beyotime, Shanghai, China). Cell populations were subsequently analyzed by flow cytometry (Beckman, Brea, CA, USA)."}, "LC3 in MCF-7/ADR": {"system": "LC3 in MCF-7/ADR", "test": "LC3 immunofluorescence", "assay_type": "cell-based, human", "conditions": "9e 10 nM, 24 hours", "protocol": "MCF-7/ADR (1 × 10^5 cells/dish) were seeded in confocal dishes and cultured overnight. After being treated with 9e (20 nM) for 24 h, cells were fixed with 4% paraformaldehyde (Servicebio, Wuhan, China) for 15 min at room temperature. Then, they were washed three times with PBS. Next, cells were blocked with a solution containing 3% BSA (Biofroxx, Einhausen, Germany) and 0.3% Triton X-100 (Beyotime, Shanghai, China) for 1 h at room temperature. The cells were incubated with the primary antibody, which was diluted in 3% BSA and 0.3% Triton X-100, overnight at 4 °C. After three washes with PBS, the cells were incubated with the fluorescent secondary antibody (Alexa Fluor 488 and Alexa Fluor 594, Bioss, Beijing, China) for 1 h at room temperature. Following another three washes with PBS, the cellular DNA was stained with Hoechst 33,342 dye (10 min, 37 °C)."}}}
{"smiles": "COc1ccc(CCC(=O)c2ccc(OCCOc3no[n+]([O-])c3S(=O)(=O)c3ccccc3)cc2OC)cc1", "note": "[Compound 9e, 4-(2-(3-methoxy-4-(3-(4-methoxyphenyl)propanoyl)phenoxy)ethoxy)-3-(phenylsulfonyl)-1,2,5-oxadiazole 2-oxide]", "values": [{"measurement": "IC50", "setting": "[1]; Homo sapiens, NCI/ADR-RES, MTT, 48 h, mean of three determinations", "value": 3.02, "unit": "nM"}, {"measurement": "Selectivity Ratio IC50(MCF-7)/ IC50(MCF-7/ADR)", "setting": "[1]; collateral sensitivity", "value": 1402.0}, {"measurement": "IC50", "setting": "[2]", "value": 13.2, "unit": "µM"}, {"measurement": "cell survival probability in HUVEC", "setting": "[3]", "value": "over 90%"}, {"measurement": "apoptosis (Q2+Q3)", "setting": "MCF-7/ADR", "value": 37.1, "unit": "%"}, {"measurement": "fluorescence intensity of LC3", "setting": "LC3 in MCF-7/ADR", "value": "significantly increased"}]}
